Experimental data reported in patent US12187728B2 (Raze Therapeutics, Inc., priority 2015, dated 2025).

Target: T1, Human MTHFD2 (Homo sapiens, UniProt P13995)
T1 construct: residues 36-350 in Uniport ID P13995; His6 (N); made in house; host or cells: E. coli
T1 sequence (P13995 36-350): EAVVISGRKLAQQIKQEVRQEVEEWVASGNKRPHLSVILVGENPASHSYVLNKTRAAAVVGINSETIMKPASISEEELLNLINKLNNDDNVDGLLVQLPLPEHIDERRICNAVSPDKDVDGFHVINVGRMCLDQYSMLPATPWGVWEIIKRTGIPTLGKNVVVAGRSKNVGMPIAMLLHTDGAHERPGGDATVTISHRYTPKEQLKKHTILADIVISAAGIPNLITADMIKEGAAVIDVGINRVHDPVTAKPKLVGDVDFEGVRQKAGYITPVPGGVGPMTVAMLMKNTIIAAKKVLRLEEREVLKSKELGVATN
Assay: MTHFD2 Activity Assay (dehydrogenase activity, diaphorase/resazurin coupled fluorescence)
Format: biochemical
Conditions: inhibitory activity (IC50 and/or binding constant); 0.2 nM MTHFD2, 11 concentrations
Procedure, shortened: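 Resorufin fluorescence (ex 525, em 598 nm) reports NADH formed by the dehydrogenase via diaphorase coupling. Enzyme (0.2 nM, residues 36-350, N-His6) sat with compound 15 min before 70 μM CH2-THF and 1 mM NAD+ started a 30 min reaction. IC50s come from 4-parameter fits over 11 concentrations.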

Structure (SMILES)	IC50
Cn1c(Nc2cccc(CCC(=O)O)n2)nc2c1c(=O)n(Cc1ccc(Cl)c(Cl)c1)c(=O)n2C [Example 282, 3-(6-(1-(3,4-dichlorobenzyl)-3,7-dimethyl-2,6-dioxo-2,3,6,7-tetrahydro-1H-purin-8-ylamino)pyridin-2-yl)propanoic acid]	10 to 1000 nM
Cn1c(Nc2ccnc(CCC(N)=O)c2)nc2c1c(=O)n(Cc1ccc(Cl)c(Cl)c1)c(=O)n2C [Example 283, 3-(4-(1-(3,4-dichlorobenzyl)-3,7-dimethyl-2,6-dioxo-2,3,6,7-tetrahydro-1H-purin-8-ylamino)pyridin-2-yl)propanamide]	10 to 1000 nM
Cn1c(Nc2ccncc2)nc2c1c(=O)n(Cc1cc3c(Cl)cccc3[nH]1)c(=O)n2C [Example 285, 1-((4-chloro-1H-indol-2-yl)methyl)-3,7-dimethyl-8-(pyridin-4-ylamino)-1H-purine-2,6(3H,7H)-dione]	10 to 1000 nM
Cn1c(Nc2cccc(C(=O)O)c2)nc2c1c(=O)n(Cc1ccc(Cl)c(Cl)c1)c(=O)n2C [Example 286, 3-((1-(3,4-dichlorobenzyl)-3,7-dimethyl-2,6-dioxo-2,3,6,7-tetrahydro-1H-purin-8-yl)amino)benzoic acid]	10 to 1000 nM
Cn1c(Nc2cccc(CC(=O)O)c2)nc2c1c(=O)n(Cc1ccc(Cl)c(Cl)c1)c(=O)n2C [Example 287, 2-(3-((1-(3,4-dichlorobenzyl)-3,7-dimethyl-2,6-dioxo-2,3,6,7-tetrahydro-1H-purin-8-yl)amino)phenyl)acetic acid]	10 to 1000 nM
Cn1c(Nc2ccc(CC(=O)O)cc2)nc2c1c(=O)n(Cc1ccc(Cl)c(Cl)c1)c(=O)n2C [Example 288, 2-(4-((1-(3,4-dichlorobenzyl)-3,7-dimethyl-2,6-dioxo-2,3,6,7-tetrahydro-1H-purin-8-yl)amino)phenyl)acetic acid]	10 to 1000 nM
Cn1c(N[C@H]2C[C@H](C(=O)O)C2)nc2c1c(=O)n(Cc1cc3ccccc3[nH]1)c(=O)n2C [Example 289, (1R,3R)-3-(1-((1H-indol-2-yl)methyl)-3,7-dimethyl-2,6-dioxo-2,3,6,7-tetrahydro-1H-purin-8-ylamino)cyclobutanecarboxylic acid]	10 to 1000 nM
Cn1cnc2c1c(=O)n(Cc1cc3cccnc3[nH]1)c(=O)n2C [Example 290, 1-((1H-pyrrolo[2,3-b]pyridin-2-yl)methyl)-3,7-dimethyl-1H-purine-2,6(3H,7H)-dione]	5000 to 10000 nM
Cn1c(Nc2cccc(CCC(=O)O)c2)nc2c1c(=O)n(Cc1ccc(Cl)c(Cl)c1)c(=O)n2C [Example 291, 3-(3-(1-(3,4-dichlorobenzyl)-3,7-dimethyl-2,6-dioxo-2,3,6,7-tetrahydro-1H-purin-8-ylamino)phenyl)propanoic acid]	10 to 1000 nM
Cn1c(Nc2cccc(CCC(N)=O)n2)nc2c1c(=O)n(Cc1ccc(Cl)c(Cl)c1)c(=O)n2C [Example 292, 3-(6-(1-(3,4-dichlorobenzyl)-3,7-dimethyl-2,6-dioxo-2,3,6,7-tetrahydro-1H-purin-8-ylamino)pyridin-2-yl)propanamide]	10 to 1000 nM
Cn1c(Nc2cccc(CCCO)n2)nc2c1c(=O)n(Cc1ccc(Cl)c(Cl)c1)c(=O)n2C [Example 293, 1-(3,4-dichlorobenzyl)-8-(6-(3-hydroxypropyl)pyridin-2-ylamino)-3,7-dimethyl-1H-purine-2,6(3H,7H)-dione]	10 to 1000 nM
Cn1c(Nc2cccc(CCC(=O)O)n2)nc2c1c(=O)n(Cc1cc3c(Cl)cccc3[nH]1)c(=O)n2C [Example 294, 3-(6-(1-((4-chloro-1H-indol-2-yl)methyl)-3,7-dimethyl-2,6-dioxo-2,3,6,7-tetrahydro-1H-purin-8-ylamino)pyridin-2-yl)propanoic acid]	10 to 1000 nM
Cn1c(N[C@H]2C[C@H](CO)C2)nc2c1c(=O)n(Cc1cc3ccccc3[nH]1)c(=O)n2C [Example 295, 1-((1H-indol-2-yl)methyl)-8-((1R,3R)-3-(hydroxymethyl)cyclobutylamino)-3,7-dimethyl-1H-purine-2,6(3H,7H)-dione]	10 to 1000 nM
Cn1c(Nc2ccc(C(=O)O)cc2)nc2c1c(=O)n(Cc1cc3ccccc3[nH]1)c(=O)n2C [Example 297, 4-[[1-(1H-indol-2-ylmethyl)-3,7-dimethyl-2,6-dioxo-purin-8-yl]amino]benzoic acid]	10 to 1000 nM
Cn1c(Nc2ccc(CO)cc2)nc2c1c(=O)n(Cc1ccc(Cl)c(Cl)c1)c(=O)n2C [Example 298, 1-(3,4-dichlorobenzyl)-8-((4-(hydroxymethyl)phenyl)amino)-3,7-dimethyl-3,7-dihydro-1H-purine-2,6-dione]	10 to 1000 nM
Cn1c(Nc2ccccn2)nc2c1c(=O)n(Cc1cc3c(Cl)cccc3[nH]1)c(=O)n2C [Example 302, 1-((4-chloro-1H-indol-2-yl)methyl)-3,7-dimethyl-8-(pyridin-2-ylamino)-1H-purine-2,6(3H, 7H)-dione]	10 to 1000 nM
Cn1c(Nc2ccnc(C(=O)O)c2)nc2c1c(=O)n(Cc1ccc(Cl)c(Cl)c1)c(=O)n2C [Example 303, 4-(1-(3,4-dichlorobenzyl)-3,7-dimethyl-2,6-dioxo-2,3,6,7-tetrahydro-1H-purin-8-ylamino)picolinic acid]	1000 to 5000 nM
Cn1c(Nc2cccc(CCC(N)=O)n2)nc2c1c(=O)n(Cc1cc3c(Cl)cccc3[nH]1)c(=O)n2C [Example 304, 3-(6-(1-((4-chloro-1H-indol-2-yl)methyl)-3,7-dimethyl-2,6-dioxo-2,3,6,7-tetrahydro-1H-purin-8-ylamino)pyridin-2-yl)propanamide]	10 to 1000 nM
Cn1c(N[C@H]2C[C@H](CO)C2)nc2c1c(=O)n(Cc1cc3c(Cl)cccc3[nH]1)c(=O)n2C [Example 305, 1-((4-chloro-1H-indol-2-yl)methyl)-8-((1R,3R)-3-(hydroxymethyl)cyclobutylamino)-3,7-dimethyl-1H-purine-2,6(3H,7H)-dione]	10 to 1000 nM

Next, values leading:

IC50	Structure (SMILES)
10 to 1000 nM	Cn1c(=O)n(Cc2ccc(Cl)c(Cl)c2)c(=O)c2c1nc(NC1CCCC(C(=O)O)C1)n2CC(N)=O (stereo not drawn) [Example 306, 3-(7-(2-amino-2-oxoethyl)-1-(3,4-dichlorobenzyl)-3-methyl-2,6-dioxo-2,3,6,7-tetrahydro-1H-purin-8-ylamino)cyclohexanecarboxylic acid]
1000 to 5000 nM	Cn1c(=O)n(Cc2ccc(Cl)c(Cl)c2)c(=O)c2c1nc(NC1CCCC(C(=O)O)C1)n2CC(=O)O (stereo not drawn) [Example 307, 3-(7-(carboxymethyl)-1-(3,4-dichlorobenzyl)-3-methyl-2,6-dioxo-2,3,6,7-tetrahydro-1H-purin-8-ylamino)cyclohexanecarboxylic acid]
10 to 1000 nM	Cn1c(NC2CCCC(C(=O)O)C2)nc2c1c(=O)n(Cc1cc3c(Cl)cccc3[nH]1)c(=O)n2C (stereo not drawn) [Example 308, 3-(1-((4-chloro-1H-indol-2-yl)methyl)-3,7-dimethyl-2,6-dioxo-2,3,6,7-tetrahydro-1H-purin-8-ylamino)cyclohexanecarboxylic acid]
10 to 1000 nM	Cn1c(Nc2ccnc(C3CC(C(=O)O)C3)c2)nc2c1c(=O)n(Cc1ccc(Cl)c(Cl)c1)c(=O)n2C (stereo not drawn) [Example 309, 3-(4-(1-(3,4-dichlorobenzyl)-3,7-dimethyl-2,6-dioxo-2,3,6,7-tetrahydro-1H-purin-8-ylamino)pyridin-2-yl)cyclobutanecarboxylic acid]
10 to 1000 nM	Cn1c(Nc2ccncc2)nc2c1c(=O)n(Cc1cc3c(F)cccc3[nH]1)c(=O)n2C [Example 310, 1-((4-fluoro-1H-indol-2-yl)methyl)-3,7-dimethyl-8-(pyridin-4-ylamino)-1H-purine-2,6(3H,7H)-dione]
10 to 1000 nM	Cn1c(Nc2ccncc2)nc2c1c(=O)n(Cc1[nH]c3ccccc3c1Cl)c(=O)n2C [Example 311, 1-((3-chloro-1H-indol-2-yl)methyl)-3,7-dimethyl-8-(pyridin-4-ylamino)-1H-purine-2,6(3H,7H)-dione]
10 to 1000 nM	Cn1c(Nc2ccncc2)nc2c1c(=O)n(Cc1cc3ccc(Cl)cc3[nH]1)c(=O)n2C [Example 312, 1-((6-chloro-1H-indol-2-yl)methyl)-3,7-dimethyl-8-(pyridin-4-ylamino)-1H-purine-2,6(3H,7H)-dione]
10 to 1000 nM	Cn1c(Nc2ccc(C(N)=O)cc2)nc2c1c(=O)n(Cc1ccc(Cl)c(Cl)c1)c(=O)n2C [Example 313, 4-[[1-[(3,4-dichlorophenyl)methyl]-3,7-dimethyl-2,6-dioxo-purin-8-yl]amino]benzamide]
10 to 1000 nM	Cn1c(Nc2ccc3c(c2)C(CC(=O)O)CC3)nc2c1c(=O)n(Cc1ccc(Cl)c(Cl)c1)c(=O)n2C (stereo not drawn) [Example 314, 2-(6-((1-(3,4-dichlorobenzyl)-3,7-dimethyl-2,6-dioxo-2,3,6,7-tetrahydro-1H-purin-8-yl)amino)-2,3-dihydro-1H-inden-1-yl)acetic acid]
10 to 1000 nM	Cn1c(=O)n(Cc2ccc(Cl)c(Cl)c2)c(=O)c2c1nc(NC1CCCC(C(=O)O)C1)n2CCO (stereo not drawn) [Example 316, 3-(1-(3,4-dichlorobenzyl)-7-(2-hydroxyethyl)-3-methyl-2,6-dioxo-2,3,6,7-tetrahydro-1H-purin-8-ylamino)cyclohexanecarboxylic acid]
10 to 1000 nM	Cn1c(=O)n(Cc2ccc(Cl)c(Cl)c2)c(=O)c2c1nc(NC1CCCC(C(=O)O)C1)n2CCC(N)=O (stereo not drawn) [Example 318, 3-(7-(3-amino-3-oxopropyl)-1-(3,4-dichlorobenzyl)-3-methyl-2,6-dioxo-2,3,6,7-tetrahydro-1H-purin-8-ylamino)cyclohexanecarboxylic acid]
